Test results published in the NIST ThermoML archive (doi:10.1021/acs.jced.5b01053).
± gives the expanded uncertainty stated by the source.

Assays:
[1] = 298.15 K; 101.33 kPa; Crystal; Vibrating tube method
[2] = Solid-liquid equilibrium temperature; conditions: 101 kPa; Crystal; DTA
[3] = Molar enthalpy of transition or fusion; conditions: Crystal; DSC

mass density [1]: 1289 ± 3 kg/m3 | Solid-liquid equilibrium temperature [2]: 431.49 ± 1 K | Molar enthalpy of transition or fusion [3]: 26.2 ± 0.96 kJ/mol
Structure (SMILES): CS(=O)(=O)c1ccc(C=O)cc1 [4-(methylsulfonyl)benzaldehyde]
